This experiment deals with BRD4 (Homo sapiens, UniProt O60885). Kind of experiment: Time resolved fluorescence resonance energy transfer (TR-FRET) binding assay, bromodomain BRD4. Conditions: one of the FRET assays described; read-out: FRET BRD4 IC50. (In general: TR-FRET usually uses a lanthanide donor and a delayed reading to cut background.)
As a reminder, the IC50 is the concentration needed to halve the response being measured. `[2H]C([2H])([2H])c1nnn(C)c1-c1cnc2c3c(OC)ncc(S(C)(=O)=O)c3n(C(c3c(F)cc(F)cc3F)C3CCOCC3)c2c1` (single isomer, unassigned) [Example 83, 10-Methanesulfonyl-13-methoxy-5-[4-(^2H3)methyl-1-methyl-1H-1,2,3-triazol-5-yl]-8-[oxan-4-yl(2,4,6-trifluorophenyl)methyl]-3,8,12-triazatricyclo[7.4.0.0^2,^7]trideca-1(13),2(7),3,5,9,11-hexaene]: the IC50 was less than 1 nM. Then `Cc1nnn(C)c1-c1cnc2c3ccc(N4CC(C)S(=O)(=O)C(C)C4)nc3n([C@H](c3ccccc3)C3CCOCC3)c2c1` (single isomer, unassigned) [Example 191], with less than 1 nM. The result for `[2H]C([2H])([2H])c1nnn(C)c1-c1cnc2c3ccc(C4CCS(=O)(=O)CC4)nc3n([C@H](c3ccccc3)C3CCOCC3)c2c1` [Example 205, 4-{5-[4-(^2H3)Methyl-1-methyl-1H-1,2,3-triazol-5-yl]-8-[(S)-oxan-4-yl(phenyl)methyl]-3,8,10-triazatricyclo[7.4.0.0^2,^7]trideca-1(9),2(7),3,5,10,12-hexaen-11-yl}-1λ^6-thiane-1,1-dione] reads less than 10 nM.

As for `Cc1cccnc1C(C1CCOCC1)n1c2cc(-c3c(C)nnn3C)ncc2c2ncc(C(C)(C)O)cc21` (single isomer, unassigned) [Example 374], the IC50 is less than 10 nM. Then `[2H]C(C)(O)c1ccc2c3ncc(-c4c(C)nnn4C)cc3n([C@H](c3ccccc3)C3CCOCC3)c2n1` (stereo partly drawn) [Example 172, 1-[5-(Dimethyl-1H-1,2,3-triazol-5-yl)-8-[(S)-oxan-4-yl(phenyl)methyl]-3,8,10-triazatricyclo[7.4.0.0^2,^7]trideca-1(9),2(7),3,5,10,12-hexaen-11-yl](1-^2H)ethan-1-ol], with less than 10 nM; and `CCN(CCN(C)C)c1ccc2c3ncc(-c4c(OC)nnn4C)cc3n([C@H](c3ccccc3F)C3CCOCC3)c2n1` [Example 257, N-[2-(Dimethylamino)ethyl]-N-ethyl-8-[(S)-(2-fluorophenyl)(oxan-4-yl)methyl]-5-(4-methoxy-1-methyl-1H-1,2,3-triazol-5-yl)-3,8,10-triazatricyclo[7.4.0.0^2,^7]trideca-1(13),2(7),3,5,9,11-hexaen-11-amine], with less than 1 nM; and `Cc1nnn(C)c1-c1cnc2c3cnc(Cl)cc3n(C(c3ncccc3F)C3CCOCC3)c2c1` (single isomer, unassigned) [Example 318], with less than 10 nM. The result for `Cc1nnn(C)c1-c1cnc2c3ccc(N4CCS(=O)(=O)CC4)nc3n([C@H](c3ccccc3)C3CCOCC3)c2c1` [Example 182, 4-[5-(Dimethyl-1H-1,2,3-triazol-5-yl)-8-[(S)-oxan-4-yl(phenyl)methyl]-3,8,10-triazatricyclo[7.4.0.0^2,^7]trideca-1(9),2(7),3,5,10,12-hexaen-11-yl]-1,4-thiomorpholine-1,1-dione] reads less than 1 nM; that for `Cc1nnn(C)c1-c1cnc2c3ccc(N4CCS(=O)(=O)C(C)C4)nc3n(C(c3ccccc3)C3CCOCC3)c2c1` [Example 217, 4-[5-(Dimethyl-1H-1,2,3-triazol-5-yl)-8-[(S)-oxan-4-yl(phenyl)methyl]-3,8,10-triazatricyclo[7.4.0.0^2,^7]trideca-1(9),2(7),3,5,10,12-hexaen-11-yl]-2-methyl-1λ^6,4-thiomorpholine-1,1-dione], less than 10 nM; that for `[2H]C([2H])([2H])c1nnn(C)c1-c1cnc2c3c(NCC(F)F)ncc(S(C)(=O)=O)c3n([C@H](c3ccccc3)C3CCOCC3)c2c1` [Example 117, N-(2,2-Difluoroethyl)-10-methanesulfonyl-5-[4-(^2H3)methyl-1-methyl-1H-1,2,3-triazol-5-yl]-8-[(S)-oxan-4-yl(phenyl)methyl]-3,8,12-triazatricyclo[7.4.0.0^2,^7]trideca-1(13),2(7),3,5,9,11-hexaen-13-amine], less than 10 nM. Then `[2H]C([2H])([2H])c1nnn(C)c1-c1nc2c(cc1F)c1ncc(C(C)(C)O)cc1n2[C@H](c1ccccc1)C1CCOCC1` [Example 361, 2-{12-Fluoro-11-[4-(^2H3)methyl-1-methyl-1H-1,2,3-triazol-5-yl]-8-[(S)-oxan-4-yl(phenyl)methyl]-3,8,10-triazatricyclo[7.4.0.0^2,^7]trideca-1(9),2(7),3,5,10,12-hexaen-5-yl}propan-2-ol], with less than 10 nM; and `[2H]C([2H])([2H])c1nnn(C)c1-c1cnc2c3c(N(C)CC)ncc(S(C)(=O)=O)c3n([C@H](c3ccccc3)C3CCOCC3)c2c1` [Example 115, N-Ethyl-10-methanesulfonyl-N-methyl-5-[4-(^2H3)methyl-1-methyl-1H-1,2,3-triazol-5-yl]-8-[(S)-oxan-4-yl(phenyl)methyl]-3,8,12-triazatricyclo[7.4.0.0^2,^7]trideca-1(13),2(7),3,5,9,11-hexaen-13-amine], with less than 1 nM; and `[2H]C([2H])([2H])c1nnn(C)c1-c1cnc2c3cnc(-c4c(C([2H])([2H])[2H])nnn4C)cc3n([C@H](c3ccccc3)C3CCOCC3)c2c1` [Example 168, 5,11-Bis[4-(^2H3)methyl-1-methyl-1H-1,2,3-triazol-5-yl]-8-[(S)-oxan-4-yl(phenyl)methyl]-3,8,12-triazatricyclo[7.4.0.0^2,^7]trideca-1(9),2(7),3,5,10,12-hexaene], with less than 1 nM. Turning to `Cc1nnn(C)c1-c1cnc2c3c(F)ncc(Cl)c3n([C@H](c3ccccc3)C3CCOCC3)c2c1` [Example 37, 10-Chloro-5-(dimethyl-1H-1,2,3-triazol-5-yl)-13-fluoro-8-[(S)-oxan-4-yl(phenyl)methyl]-3,8,12-triazatricyclo[7.4.0.0^2,^7]trideca-1(13),2(7),3,5,9,11-hexaene], the IC50 is less than 10 nM. The result for `Cc1nnn(C)c1-c1cnc2c3ccc(N4CCC(C#N)CC4)nc3n([C@H](c3ccccc3F)C3CCOCC3)c2c1` [Example 274, 1-[5-(Dimethyl-1H-1,2,3-triazol-5-yl)-8-[(S)-(2-fluorophenyl)(oxan-4-yl)methyl]-3,8,10-triazatricyclo[7.4.0.0^2,^7]trideca-1(13),2(7),3,5,9,11-hexaen-11-yl]piperidine-4-carbonitrile] reads less than 10 nM; that for `[2H]C([2H])([2H])c1nnn(C)c1-c1cnc2c3c(OC)ncc(S(C)(=O)=O)c3n([C@H](c3ccc(F)cc3)C3CCC(F)(F)CC3)c2c1` [Example 95, 8-[(S)-(4,4-Difluorocyclohexyl)(4-fluorophenyl)methyl]-10-methanesulfonyl-13-methoxy-5-[4-(^2H3)methyl-1-methyl-1H-1,2,3-triazol-5-yl]-3,8,12-triazatricyclo[7.4.0.0^2,^7]trideca-1(13),2(7),3,5,9,11-hexaene], less than 10 nM; that for “2-{8-[(3-Fluoropyridin-2-yl)(oxan-4-yl)methyl]-11-[4-(^2H3)methyl-1-methyl-1H-1,2,3-triazol-5-yl]-3,8,10-triazatricyclo[7.4.0.0^2,^7]trideca-1(9),2,4,6,10,12-hexaen-5-yl}propan-2-ol [Example 363]”, less than 1 nM. The result for `Cc1nnn(C)c1-c1cnc2c3ccc(N4CCC(S(C)(=O)=O)CC4)nc3n([C@H](c3ccccc3)C3CCOCC3)c2c1` [Example 192, 5-(Dimethyl-1H-1,2,3-triazol-5-yl)-11-(4-methanesulfonylpiperidin-1-yl)-8-[(S)-oxan-4-yl(phenyl)methyl]-3,8,10-triazatricyclo[7.4.0.0^2,^7]trideca-1(9),2(7),3,5,10,12-hexaene] reads less than 1 nM.

For the origin of these results see patent US9725449B2, “Tricyclic compounds as anticancer agents” (BRISTOL-MYERS SQUIBB COMPANY, priority 2015, dated 2017).
